From US20080200448A1, “New Pyridine Analogues VIII 518” (ASTRAZENECA AB, priority 2007, published 2008) come the findings set out here.

The test addresses T1, P2Y12 receptor (Homo sapiens, UniProt Q9H244).
T1 construct: expressed in transfected cells; host or cells: CHO cells (membrane preparation)
Nature of the test: Functional inhibition of 2-Me-S-ADP induced P2Y12 signalling (35S-GTPγS binding, cell membranes). The class given is biochemical. The settings on record: 35S-GTPγS assay, membranes, EC80 concentration of 2-methyl-thio-adenosine diphosphate, 30° C. for 45 min; read-out: GTPγS (IC50 μM). Here is the method: Functional inhibition of- the P2Y12 receptor can be measured by in vitro assays using cell membranes from P2Y12 transfected CHO-cells, the methodology is indicated below.
Functional inhibition of 2-Me-S-ADP induced P2Y12 signalling: 5 μg of membranes were diluted in 200 μl of 200 mM NaCl, 1 mM MgCl2, 50 mM HEPES (pH 7.4), 0.01% BSA, 30 μg/ml saponin and 10 μM GDP. To this was added an EC80 concentration of agonist (2-methyl-thio-adenosine diphosphate), the required concentration of test compound and 0.1 μCi ^35S-GTPγS. The reaction was allowed to proceed at 30° C. for 45 min. Samples were then transferred on to GF/B filters using a cell harvester and washed with wash buffer (50 mM Tris (pH 7.4), 5 mM MgCl2, 50 mM NaCl). Filters were then covered with scintilant and counted for the amount of ^35S-GTPγS retained by the filter. Maximum activity was that determined in the presence of the agonist and minimum activity in the absence of the agonist following subtraction of the value determined for non-specific activity. The effect of compounds at various concentrations was plotted according to the equation
y=A+((B−A)/(1+((C/x)̂D)))
and IC50 estimated where A is the bottom plateau of the curve i.e. the final minimum y value B is the top of the plateau of the curve i.e. the final maximum y value C is the x value at the middle of the curve. This represents the log EC50 value when A+B=100 D is the slope factor. x is the original known x values. Y is the original known y values.

The structures appear in SMILES notation.

T1 sequence (Q9H244 whole entry): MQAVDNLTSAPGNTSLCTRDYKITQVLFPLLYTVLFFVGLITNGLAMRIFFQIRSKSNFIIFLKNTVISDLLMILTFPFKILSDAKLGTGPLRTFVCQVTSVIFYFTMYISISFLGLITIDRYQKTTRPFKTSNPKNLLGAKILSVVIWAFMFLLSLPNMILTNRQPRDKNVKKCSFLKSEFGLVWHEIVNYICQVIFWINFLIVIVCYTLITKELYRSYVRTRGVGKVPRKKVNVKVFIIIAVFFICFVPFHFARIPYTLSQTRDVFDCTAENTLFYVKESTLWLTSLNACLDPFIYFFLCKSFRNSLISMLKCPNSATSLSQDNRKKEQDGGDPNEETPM

For orientation: IC50 means the concentration at which inhibition is half-maximal. As to `CC(C)OC(=O)c1cc(C#N)c(N2CCC(C(=O)NS(=O)(=O)Cc3ccc(F)cc3)CC2)nc1CN1CCCC1=O` [Example 51, Isopropyl 5-cyano-6-(4-{[(4-fluorobenzyl)sulfonyl]carbamoyl}piperidin-1-yl)-2-[(2-oxopyrrolidin-1-yl)methyl]nicotinate], the IC50 was 0.023 µM.

On to `CC(C)OC(=O)c1cc(C#N)c(N2CCC(C(=O)NS(=O)(=O)Cc3ccc(Cl)cc3F)CC2)nc1CN1CCCC1=O` [Example 52, Isopropyl 6-(4-{[(4-chloro-2-fluorobenzyl)sulfonyl]carbamoyl}piperidin-1-yl)-5-cyano-2-[(2-oxopyrrolidin-1-yl)methyl]nicotinate], for which the IC50 came out at 0.014 µM.

Regarding `CC(C)OC(=O)c1cc(C#N)c(N2CCC(C(=O)NS(=O)(=O)Cc3ccc(Cl)cc3Cl)CC2)nc1CN1CCCC1=O` [Example 53, Isopropyl 5-cyano-6-(4-{[(2,4-dichlorobenzyl)sulfonyl]carbamoyl}piperidin-1-yl)-2-[(2-oxopyrrolidin-1-yl)methyl]nicotinate], the IC50 is 0.032 µM.

For `CC1CCC(CS(=O)(=O)NC(=O)C2CCN(c3nc(CN4CCCC4=O)c(C(=O)OC(C)C)cc3C#N)CC2)CC1` (centres unmarked) [Example 54, Isopropyl 5-cyano-6-[4-({[(4-methylcyclohexyl)methyl]sulfonyl}carbamoyl)piperidin-1-yl]-2-[(2-oxopyrrolidin-1-yl)methyl]nicotinate], the IC50 was 0.104 µM.

In the case of `CCOC(=O)c1cc(C#N)c(N2CCC(C(=O)NS(=O)(=O)Nc3ccccc3)CC2)nc1CN1CCCC1=O` [Example 55, Ethyl 6-{4-[(anilinosulfonyl)carbamoyl]piperidin-1-yl}-5-cyano-2-[(2-oxopyrrolidin-1-yl)methyl]nicotinate], the IC50 amounted to 0.03 µM.

`CCOC(=O)c1cc(C#N)c(N2CCC(C(=O)NS(=O)(=O)Cc3ccccc3)CC2)nc1CN1CCCCC1=O` [Example 56, Ethyl 6-{4-[(benzylsulfonyl)carbamoyl]piperidin-1-yl}-5-cyano-2-[(2-oxopiperidin-1-yl)methyl]nicotinate]: the IC50 was found to be 0.03 µM.

Regarding `CCOC(=O)c1cc(C#N)c(N2CCC(C(=O)NS(=O)(=O)N(C)c3ccccc3)CC2)nc1CN1CCCC1=O` [Example 57, Ethyl 5-cyano-6-[4-({[methyl(phenyl)amino]sulfonyl}carbamoyl)piperidin-1-yl]-2-[(2-oxopyrrolidin-1-yl)methyl]nicotinate], the IC50 was found to be 0.013 µM.

Regarding `CCOC(=O)c1cc(C#N)c(N2CCC(C(=O)NS(=O)(=O)CC3CCC(C)CC3)CC2)nc1CN1CCCCC1=O` (centres unmarked) [Example 58, Ethyl 5-cyano-6-[4-({[(4-methylcyclohexyl)methyl]sulfonyl}carbamoyl)piperidin-1-yl]-2-[(2-oxopiperidin-1-yl)methyl]nicotinate], the IC50 stood at 0.164 µM.

In the case of `CCOC(=O)c1cc(C#N)c(N2CCC(C(=O)NS(=O)(=O)Cc3ccc(C(F)(F)F)cc3)CC2)nc1CN1CCCCC1=O` [Example 59, Ethyl 5-cyano-2-[(2-oxopiperidin-1-yl)methyl]-6-[4-({[4-(trifluoromethyl)benzyl]sulfonyl}carbamoyl)piperidin-1-yl]nicotinate], the IC50 is 0.029 µM.

On to `CCOC(=O)c1cc(C#N)c(N2CCC(C(=O)NS(=O)(=O)CC3CCCC3)CC2)nc1CN1CCCCC1=O` [Example 60, Ethyl 5-cyano-6-(4-{[(cyclopentylmethyl)sulfonyl]carbamoyl}piperidin-1-yl)-2-[(2-oxopiperidin-1-yl)methyl]nicotinate], for which the IC50 turned out to be 0.111 µM.

For the compound `CCOC(=O)c1cc(C#N)c(N2CCC(C(=O)NS(=O)(=O)CC3CCCCC3)CC2)nc1CN1CCCCC1=O` [Example 61, Ethyl 5-cyano-6-(4-{[(cyclohexylmethyl)sulfonyl]carbamoyl}piperidin-1-yl)-2-[(2-oxopiperidin-1-yl)methyl]nicotinate], the IC50 worked out at 0.061 µM.

Consider `CCOC(=O)c1cc(C#N)c(N2CCC(C(=O)NS(=O)(=O)Cc3ccc(F)cc3)CC2)nc1CN1CCCCC1=O` [Example 62, Ethyl 5-cyano-6-(4-{[(4-fluorobenzyl)sulfonyl]carbamoyl}piperidin-1-yl)-2-[(2-oxopiperidin-1-yl)methyl]nicotinate], for which the IC50 is 0.148 µM.

On to `CCOC(=O)c1cc(C#N)c(N2CCC(C(=O)NS(=O)(=O)Cc3ccc(C)cc3)CC2)nc1CN1CCCCC1=O` [Example 63, Ethyl 5-cyano-6-(4-{[(4-methylbenzyl)sulfonyl]carbamoyl}piperidin-1-yl)-2-[(2-oxopiperidin-1-yl)methyl]nicotinate], for which the IC50 is 0.014 µM.

As to `CCOC(=O)c1cc(C#N)c(N2CCC(C(=O)NS(=O)(=O)Nc3ccccc3)CC2)nc1CN1CCCCC1=O` [Example 64, Ethyl 6-{4-[(anilinosulfonyl)carbamoyl]piperidin-1-yl}-5-cyano-2-[(2-oxopiperidin-1-yl)methyl]nicotinate], the IC50 came to 0.14 µM.

For `CCOC(=O)c1cc(C#N)c(N2CCC(C(=O)NS(=O)(=O)CC3CCCCC3)CC2)nc1CN1CCCC1=O` [Example 65, Ethyl 5-cyano-6-(4-{[(cyclohexylmethyl)sulfonyl]carbamoyl}piperidin-1-yl)-2-[(2-oxopyrrolidin-1-yl)methyl]nicotinate], the half-maximal inhibitory concentration (IC50) is 0.021 µM.

`CCOC(=O)c1cc(C#N)c(N2CCC(C(=O)NS(=O)(=O)Cc3ccc(SC(F)(F)F)cc3)CC2)nc1CN1CCCC1=O` [Example 66, Ethyl 5-cyano-2-[(2-oxopyrrolidin-1-yl)methyl]-6-{4-[({4-[(trifluoromethyl)thio]benzyl}sulfonyl)carbamoyl]piperidin-1-yl}nicotinate]: the IC50 turned out to be 0.033 µM.

As for `CCOC(=O)c1cc(C#N)c(N2CCC(C(=O)NS(=O)(=O)Cc3ccc(F)cc3F)CC2)nc1CN1CCCCC1=O` [Example 67, Ethyl 5-cyano-6-(4-{[(2,4-difluorobenzyl)sulfonyl]carbamoyl}piperidin-1-yl)-2-[(2-oxopiperidin-1-yl)methyl]nicotinate], the IC50 was 0.02 µM.

As to `CCOC(=O)c1cc(C#N)c(N2CCC(C(=O)NS(=O)(=O)Cc3ccc(OC)cc3)CC2)nc1CN1CCCCC1=O` [Example 68, Ethyl 5-cyano-6-(4-{[(4-methoxybenzyl)sulfonyl]carbamoyl}piperidin-1-yl)-2-[(2-oxopiperidin-1-yl)methyl]nicotinate], the IC50 is 0.024 µM.

Take `CCOC(=O)c1cc(C#N)c(N2CCC(C(=O)NS(=O)(=O)Cc3ccc(C(C)C)cc3)CC2)nc1CN1CCCCC1=O` [Example 69, Ethyl 5-cyano-6-(4-{[(4-isopropylbenzyl)sulfonyl]carbamoyl}piperidin-1-yl)-2-[(2-oxopiperidin-1-yl)methyl]nicotinate]: the IC50 was 0.082 µM.

With `CC(C)OC(=O)c1cc(C#N)c(N2CCC(C(=O)NS(=O)(=O)Cc3ccccc3)CC2)nc1CN1CCCCC1=O` [Example 70, Isopropyl 6-{4-[(benzylsulfonyl)carbamoyl]piperidin-1-yl}-5-cyano-2-[(2-oxopiperidin-1-yl)methyl]nicotinate], the IC50 amounted to 0.102 µM.

For `CCOC(=O)c1cc(C#N)c(N2CCC(C(=O)NS(=O)(=O)N(C)c3ccccc3)CC2)nc1CN1CCCCC1=O` [Example 71, Ethyl 5-cyano-6-[4-({[methyl(phenyl)amino]sulfonyl}carbamoyl)piperidin-1-yl]-2-[(2-oxopiperidin-1-yl)methyl]nicotinate], the IC50 came to 0.036 µM.

In the case of `CCOC(=O)c1cc(C#N)c(N2CCC(C(=O)NS(=O)(=O)CC3CCOCC3)CC2)nc1CN1CCCC1=O` [Example 72, Ethyl 5-cyano-2-[(2-oxopyrrolidin-1-yl)methyl]-6-(4-{[(tetrahydro-2H-pyran-4-ylmethyl)sulfonyl]carbamoyl}piperidin-1-yl)nicotinate], the IC50 was determined as 0.725 µM.

For `CC(C)OC(=O)c1cc(C#N)c(N2CCC(C(=O)NS(=O)(=O)CC3CCOCC3)CC2)nc1CN1CCCC1=O` [Example 73, Isopropyl 5-cyano-2-[(2-oxopyrrolidin-1-yl)methyl]-6-(4-{[(tetrahydro-2H-pyran-4-ylmethyl)sulfonyl]carbamoyl}piperidin-1-yl)nicotinate], the IC50 is over 3.3 µM.

With `CCOC(=O)c1cc(C#N)c(N2CCC(C(=O)NS(=O)(=O)CC3CCC3)CC2)nc1CN1CCCC1=O` [Example 74, Ethyl 5-cyano-6-(4-{[(cyclobutylmethyl)sulfonyl]carbamoyl}piperidin-1-yl)-2-[(2-oxopyrrolidin-1-yl)methyl]nicotinate], the IC50 came to 0.037 µM.

Consider `CCOC(=O)c1cc(C#N)c(N2CCC(C(=O)NS(=O)(=O)Cc3ccc(OC)cc3)CC2)nc1CN1CCCC1=O` [Example 75, Ethyl 5-cyano-6-(4-{[(4-methoxybenzyl)sulfonyl]carbamoyl}piperidin-1-yl)-2-[(2-oxopyrrolidin-1-yl)methyl]nicotinate], for which the IC50 is 0.0075 µM.

For `CCOC(=O)c1cc(C#N)c(N2CCC(C(=O)NS(=O)(=O)N(C)c3ccc(F)cc3)CC2)nc1CN1CCCC1=O` [Example 76, Ethyl 5-cyano-6-[4-({[(4-fluorophenyl)(methyl)amino]sulfonyl}carbamoyl)piperidin-1-yl]-2-[(2-oxopyrrolidin-1-yl)methyl]nicotinate], the IC50 is 0.0073 µM.
